Source: BindingDB's records for doi:10.1021/acs.jmedchem.6b01711 (University of Strathclyde, 2017)

Tests used:
[1] = Antagonist activity at integrin alpha2b beta3 receptor in citrated human platelet-rich plasma assessed as inhibition of ADP-induced platelets aggregation preincubated for 15 mins followed by ADP addition measured for 8 mins by aggregometric analysis
[2] = Antagonist activity at integrin alpha2b beta3 receptor in citrated human platelet-rich plasma assessed as inhibition of ADP-induced platelet aggregation
[3] = Inhibition of alpha5 beta1 integrin (unknown origin) by cell proliferation assay
[4] = Inhibition of alpha5 beta1 integrin (unknown origin) by cell migration assay

Compound: CCc1nn2c(=O)cc(N3CCNCC3)nc2s1
- IC50 [1]: 9.7 µM

Compound: N=C(N)c1ccc2cc(OC(=O)c3ccc(N=C(N)N)cc3)ccc2c1 [4-Guanidino-benzoic acid 6-carbamimidoyl-naphthalen-2-yl ester(FUT-175)]
- IC50 [2]: 12 µM

Compound: O=c1c(C2NCCc3c2[nH]c2ccccc32)c(O)[nH]c(=S)n1Cc1ccc(F)cc1 (centres undefined)
- IC50 [3]: 20.5 µM
- IC50 [4]: 15.5 µM
